pEC50: −log10 of the molar value.

This passage reports EC50 and EC90 results from ChEMBL document CHEMBL5661943, “ASAP - In vitro antiviral effect” (2024).

The test system of assay [1] is Zika virus. The assay can be described thus: Functional CPE-based assay to measure dose dependent changes in antiviral-drug inhibitory efficacy against Zika virus MR766 in Vero E6 miRFP670 cells. Cells are treated with antiviral candidates that are serially diluted. EC50 is reported via analysis of MTS assay as a readout of CPE. The assay has been performed by KU Leuven. Format: organism-based, Chlorocebus sabaeus, Vero C1008. In general terms: Tetrazolium dyes change colour on reduction, which living cells bring about.

The subject of assay [2] is Zika virus. The experiment in a line: Functional CPE-based assay to measure dose dependent changes in antiviral-drug inhibitory efficacy against Zika virus MR766 in Vero E6 miRFP670 cells (cotreated with P-gp inhibitor, CP100356). Cells are treated with antiviral candidates that are serially diluted. EC50 is reported via analysis of MTS assay as a readout of CPE. The assay has been performed by KU Leuven. Format: organism-based, Chlorocebus sabaeus, Vero C1008. Particulars: Zika virus; for EC90: P-gp concentration 500 nM, P-gp inhibitor CP100356.

For assay [3], the system named is dengue virus type 2. The assay can be described thus: Functional assay to measure dose dependent changes in antiviral-drug inhibitory efficacy against Dengue virus type 2 New Guinea C in Vero E6 miRFP670 cells (cotreated with P-gp inhibitor, CP100356). Cells are treated with antiviral candidates that are serially diluted, following infection, cells are fixed. EC50 is reported via analysis of fluorescence intensity using high-content imager. The …. The class given is organism-based, Chlorocebus sabaeus, Vero C1008.

Assay [4] concerns Zika virus. The assay can be described thus: EC50 is reported via analysis of immunofluorescence staining. The assay has been performed by Icahn School of Medicine at Mount Sinai. The class given is functional, organism-based, Chlorocebus sabaeus, VeroE6/TMPRSS2. Particulars: Zika virus, VeroE6/TMPRSS2; for EC90: Baseline response 0 %, P-gp concentration 2 uM, P-gp inhibitor Elacidar.

Regarding `CCc1cc(Br)cc2c(Cc3ccc(-c4nnn[nH]4)cc3)c[nH]c12`, the pEC50 – broadly, −log10 of the EC50, conventionally taken in molar units – is below 4.30 in assay [1] (Zika virus, Vero C1008); below 4.30 in assay [2] (Vero C1008); 4.61 in assay [3] (Dengue virus, Vero C1008); 4.63 in assay [3] (vero c1008). Besides, the EC90 – broadly, the concentration needed for an effect of 90% – was above 50 µM in assay [1] (Zika virus, Vero C1008, Baseline response 0 %, Hill slope -0.347, Maximum measured 5.052 %, Maximum response 100 %, Minimum measured -3.467 %, R squared 0.177); above 50 µM in assay [1] (Zika virus, Vero C1008, Maximum measured -3.488 %, Minimum measured -8.239 %); above 50 µM in assay [2] (Vero C1008, Maximum measured 2.453 %, Minimum measured -6.07 %); above 25 µM in assay [3] (Baseline response 0 %, Hill slope -20.83, Maximum measured 154.882 %, Maximum response 100 %, Minimum measured 18.569 %, P-gp concentration 500 nM, R squared 0.389, P-gp inhibitor CP100356); 26.9 µM in assay [3] (Dengue virus, Vero C1008, Baseline response 0 %, Hill slope -25.951, Maximum measured 114.444 %, Maximum response 100 %, Minimum measured 0.23 %, P-gp concentration 500 nM, R squared 0.943, P-gp inhibitor CP100356).

On to `CCc1nc2c(C(=O)Nc3ccc4c(c3)CNC4)cc(Br)cc2[nH]1`, for which the pEC50 was below 5.26 in assay [4]; below 4.30 in assay [1] (Zika virus, Vero C1008); below 4.30 in assay [3] (Dengue virus, Vero C1008). The EC90 in assay [4] (Hill slope 0.058, Maximum measured 88.326 %, Maximum response 100 %, Minimum measured 53.216 %, R squared 0.024) was above 5.56 µM; in assay [1] (Zika virus, Vero C1008, Baseline response 0 %, Hill slope 0.303, Maximum measured 9.479 %, Maximum response 100 %, Minimum measured 2.16 %, R squared 0.852), above 50 µM; in assay [3] (Dengue virus, Vero C1008, Maximum measured 122.691 %, Minimum measured 98.084 %, P-gp concentration 500 nM, P-gp inhibitor CP100356), above 50 µM.

For `O=C(Nc1cc(Cl)cc(C(=O)Nc2ccc(C3CCNCC3)cc2)c1)OCc1ccccc1`, the pEC50 in assay [1] (Zika virus, Vero C1008) was below 4.30; in assay [2] (Vero C1008) it was below 4.30; in assay [3] (Dengue virus, Vero C1008), 5.54; in assay [3] (vero c1008) it was 5.82. Moreover, the EC90 was above 50 µM in assay [1] (Zika virus, Vero C1008, Maximum measured […], Minimum measured -3.389 %); above 50 µM in assay [2] (Vero C1008, Maximum measured 2.883 %, Minimum measured -3.299 %); 1.68 µM in assay [3] (Baseline response 0 %, Hill slope -20.516, Maximum measured 137.543 %, Maximum response 100 %, Minimum measured 2.498 %, P-gp concentration 500 nM, R squared 0.862, P-gp inhibitor CP100356); 3.23 µM in assay [3] (Dengue virus, Vero C1008).

In the case of `O=C1Cc2c(cccc2C(=O)Nc2ccc3c(c2)CNC3)N1`, the pEC50 in assay [1] (Zika virus, Vero C1008) was below 4.30; in assay [2] (Vero C1008), below 4.30; in assay [3] (Dengue virus, Vero C1008), below 4.30. The EC90 in assay [1] (Zika virus, Vero C1008, Baseline response 0 %, Hill slope 0.284, Maximum measured 8.076 %, Maximum response 100 %, Minimum measured -0.771 %, R squared 0.143) is above 50 µM; in assay [2] (Vero C1008, Baseline response 0 %, Hill slope 0.131, Maximum measured 3.439 %, Maximum response 100 %, Minimum measured 0.392 %, R squared 0.059), above 50 µM; in assay [3] (Dengue virus, Vero C1008, Maximum measured 146.808 %, Minimum measured 90.834 %, P-gp concentration 500 nM, P-gp inhibitor CP100356), above 50 µM.

On to `O=C(Nc1cc(Cl)cc(-c2ccc3cc(C(=O)O)[nH]c3c2)c1)OCc1ccccc1`, for which the pEC50 in assay [1] (Zika virus, Vero C1008) is below 4.30; in assay [2] (Vero C1008) it was below 4.30; in assay [3] (Dengue virus, Vero C1008), 4.56. The EC90 was above 50 µM in assay [1] (Zika virus, Vero C1008, Maximum measured -0.377 %, Minimum measured -2.566 %); above 50 µM in assay [2] (Vero C1008, Baseline response 0 %, Hill slope 0.219, Maximum measured 11.412 %, Maximum response 100 %, Minimum measured -1.306 %, R squared 0.087); above 50 µM in assay [3] (Dengue virus, Vero C1008, Baseline response 0 %, Hill slope -2.588, Maximum measured 127.292 %, Maximum response 100 %, Minimum measured 18.339 %, P-gp concentration 500 nM, R squared 0.622, P-gp inhibitor CP100356).

Turning to `O=C(O)c1cc2cc(-c3cc(Cl)cc(C4CC4)c3)ccc2[nH]1`, the pEC50 in assay [1] (Zika virus, Vero C1008) was below 4.30; in assay [2] (Vero C1008), below 4.30; in assay [3] (Dengue virus, Vero C1008), 4.34. The EC90 in assay [1] (Zika virus, Vero C1008, Baseline response 0 %, Hill slope 0.633, Maximum measured 10.894 %, Maximum response 100 %, Minimum measured 0.566 %, R squared 0.67) is above 50 µM; in assay [2] (Vero C1008, Baseline response 0 %, Hill slope 0.262, Maximum measured 7.755 %, Maximum response 100 %, Minimum measured -1.169 %, R squared 0.013), above 50 µM; in assay [3] (Dengue virus, Vero C1008, Baseline response 0 %, Hill slope -21.982, Maximum measured 163.66 %, Maximum response 100 %, Minimum measured 12.537 %, P-gp concentration 500 nM, R squared 0.152, P-gp inhibitor CP100356), above 50 µM.

Take `O=C(Nc1cc(Cl)cc([C@H]2C[C@@H]2c2cccc(C3CCNCC3)c2)c1)OCc1ccccc1`: the pEC50 in assay [1] (Zika virus, Vero C1008) is below 4.30; in assay [3] (Dengue virus, Vero C1008) it was 5.71. The EC90 in assay [1] (Zika virus, Vero C1008, Maximum measured 2.266 %, Minimum measured -4.892 %) was above 50 µM; in assay [3] (Dengue virus, Vero C1008, Baseline response 0 %, Hill slope -2.737, Maximum measured 87.189 %, Maximum response 100 %, Minimum measured 17.217 %, P-gp concentration 500 nM, R squared 0.653, P-gp inhibitor CP100356), above 3.12 µM.

As to `N#C[C@H](Nc1ccc2c(c1)CNC2)c1cc(Cl)cc2[nH]ncc12`, the pEC50 is 5.14 in assay [4]; 4.37 in assay [1] (Zika virus, Vero C1008); below 4.30 in assay [1] (vero c1008); below 4.30 in assay [3] (Dengue virus, Vero C1008). The EC90 in assay [4] (Hill slope -1.174, Maximum measured 85.278 %, Maximum response 50 %, Minimum measured 14.695 %, R squared 0.497) was above 16.7 µM; in assay [1] (Zika virus, Vero C1008, Baseline response 0 %, Hill slope 4.778, Maximum measured 68.413 %, Maximum response 100 %, Minimum measured -0.525 %, R squared 0.993) it was above 50 µM; in assay [1] (Zika virus, Vero C1008, Maximum measured -1.389 %, Minimum measured -3.372 %) it was above 50 µM; in assay [3] (Dengue virus, Vero C1008, Maximum measured 117.716 %, Minimum measured 103.927 %, P-gp concentration 500 nM, P-gp inhibitor CP100356), above 50 µM; in assay [3] (Dengue virus, Vero C1008, Maximum measured 161.231 %, Minimum measured 110.618 %, P-gp concentration 500 nM, P-gp inhibitor CP100356), above 50 µM.

Regarding `NCCc1ccc([C@H]2C[C@@H]2c2cc(Cl)cc(NC(=O)OCc3ccccc3)c2)cc1`, the pEC50 in assay [1] (Zika virus, Vero C1008) was below 4.30; in assay [2] (Vero C1008), below 4.30; in assay [3] (Dengue virus, Vero C1008), below 5.51; in assay [3] (vero c1008) it was below 5.20. The EC90 in assay [1] (Zika virus, Vero C1008, Maximum measured 1.279 %, Minimum measured -5.481 %) is above 50 µM; in assay [2] (Vero C1008, Maximum measured 6.997 %, Minimum measured -5.737 %), above 50 µM; in assay [3] (Dengue virus, Vero C1008, Maximum measured 120.903 %, Minimum measured 100.357 %, P-gp concentration 500 nM, P-gp inhibitor CP100356), above 3.12 µM; in assay [3] (Dengue virus, Vero C1008, Maximum measured 221.095 %, Minimum measured 80.639 %, P-gp concentration 500 nM, P-gp inhibitor CP100356), above 6.25 µM.

Consider `O=C(NCC1CC1)c1cc(Cl)ccc1NS(=O)(=O)c1ccc(Oc2ccccc2Cl)cc1`, for which the pEC50 is below 4.30 in assay [1] (Zika virus, Vero C1008) and 5.22 in assay [3] (Dengue virus, Vero C1008). Further, the EC90 in assay [1] (Zika virus, Vero C1008, Maximum measured -0.067 %, Minimum measured -1.21 %) is above 50 µM; in assay [3] (Dengue virus, Vero C1008, Baseline response 0 %, Hill slope -26.927, Maximum measured 110.675 %, Maximum response 100 %, Minimum measured 0.394 %, P-gp concentration 500 nM, R squared 0.827, P-gp inhibitor CP100356), 6.57 µM.

On to `NCc1cccc(NC(=O)c2cc(Cl)cc3[nH]ncc23)c1`, for which the pEC50 in assay [1] (Zika virus, Vero C1008) is below 4.30; in assay [3] (Dengue virus, Vero C1008) it was below 4.30. For the same compound, the EC90 is above 50 µM in assay [1] (Zika virus, Vero C1008, Maximum measured 0.74 %, Minimum measured -1.239 %) and above 50 µM in assay [3] (Dengue virus, Vero C1008, Maximum measured 106.767 %, Minimum measured 104.405 %, P-gp concentration 500 nM, P-gp inhibitor CP100356).

For `CNC(=O)[C@H](Nc1cc(CN)cc(C(=O)O)c1)c1cc(Cl)cc(C2CC2)c1`, the pEC50 was below 4.30 in assay [1] (Zika virus, Vero C1008) and below 4.30 in assay [3] (Dengue virus, Vero C1008). Moreover, the EC90 was above 50 µM in assay [1] (Zika virus, Vero C1008, Maximum measured 1.859 %, Minimum measured -2.673 %) and above 50 µM in assay [3] (Dengue virus, Vero C1008, Maximum measured 120.74 %, Minimum measured 102.141 %, P-gp concentration 500 nM, P-gp inhibitor CP100356).

For the compound `NCc1cccc(NC(=O)[C@H](NC(=O)OCc2ccccc2)c2ccc(Br)c(Cl)c2)c1`, the pEC50 in assay [1] (Zika virus, Vero C1008) was below 4.30; in assay [3] (Dengue virus, Vero C1008) it was 4.55. Also, the EC90 in assay [1] (Zika virus, Vero C1008, Baseline response 0 %, Hill slope 4.111, Maximum measured 16.618 %, Maximum response 100 %, Minimum measured -5.242 %, R squared 0.822) was above 50 µM; in assay [3] (Dengue virus, Vero C1008, Baseline response 0 %, Hill slope -1.252, Maximum measured 107.5 %, Maximum response 100 %, Minimum measured 22.965 %, P-gp concentration 500 nM, R squared 0.543, P-gp inhibitor CP100356), above 50 µM.
